Key:
HepG2 cells [1] = test: Flow cytometric analysis of cell cycle; type: cell-based, human; conditions: 3 μM BaP
Protocol: (§1) Two independent experiments were conducted.
(§2) Analyses of cell cycle profiles and apoptosis was performed as previously described using a FACSort (Becton Dickinson, Sunnyvale, USA) (29). For DNA content cells were stained with propidium iodide; apoptotic cells were visualised with the primary antibody M30 CytoDeath (Roche, Penzberg, Germany) and FITC conjugated anti-mouse Ig as secondary antibody (DakoCytomation, Glostrup, Denmark). For each sample 10,000 cells were analyzed. Cells in the G0-1, S or G2-M phase were expressed as a percentage of the total number of cells.

HepG2 cells [2] = test: Flow cytometric analysis of apoptosis (M30 CytoDeath); type: cell-based; conditions: human, 3 μM
Protocol: as §1, §2

HepG2 cells [3] = test: Gene expression analyses with DNA microarrays (Agilent), Reactome and T-profiler; type: cell-based, human; conditions: 3 μM BaP
Protocol: Labelling and hybridisation of RNA samples was done according to Agilent's manual for microarrays (Agilent Technologies, Breda, The Netherlands). […] For each biological experiment, two hybridizations per time point were conducted, with swapped Cy3 and Cy5 dyes.
The images (10 micron resolution; 16 bit tiff) were processed with ImaGene 6.0 to quantify spot signals (BioDiscovery Inc., Los Angeles, USA). Irregular spots were automatically flagged and excluded from data analysis. Data from ImaGene were further processed with GeneSight 4.1.6 (BioDiscovery Inc., Los Angeles, USA). For each spot, background was subtracted and flagged spots as well as spots with a net expression level below 20 in both channels were omitted. Data were log base 2 transformed and LOWESS normalized. If for a gene more probes were on the array, replicates were averaged while omitting outliers (>2 standard deviations). Raw data are available at ArrayExpress (accession numbers E-TOXM-22 and E-TOXM-23, for the first and second experiment respectively) (www.ebi.ac.uk/arrayexpress/).
Second, genes were selected by ANOVA using the plug-in “Time series analysis” from BRB Array Tools (version 3.4 and R version 2.2.0; linus.nci.nih.gov/BRB-ArrayTools.html) with “Time” as descriptor.
Reactome (www.reactome.org; Version 25, August 2008) (45) is used to examine the biological processes that may be affected at the level of reactions and reaction pathways, a level of detail that cannot be obtained by gene ontology annotations, and KEGG and BioCarta pathways. Reactions are grouped into causal chains to form pathways. […] The ratio of these number of differentially genes per event with total numbers present in the set of 2808 genes, are used for visualisation of affected pathways. Rctions were ordered by main pathway and sub-pathway.
T-profiler is used for functional annotation of pathways and processes in the complete data set of genes without pre-selecting modulated genes. T-profiler uses the unpaired t-test to score the difference between the mean expression level of predefined sets of genes and that of all other genes within the complete data set (46). […] Per experiment and time point t-values were determined for each gene set. Only gene sets with an absolute t-value>4 at at least 2 succeeding time points in both experiments were selected for further analyses.

c1ccc2c(c1)cc1ccc3cccc4ccc2c1c34 [BaP, benzo[a]pyrene]
duration of S-phase accumulation (HepG2 cells [1]): 6 to 18 h
time after which cell cycle distribution becomes similar to that of the controls (HepG2 cells [1]): about 54 h
S-phase cells (HepG2 cells [1]; at 18 h, concomitant decrease of cells in G1 and G2 phases): drastic increase
apoptotic cells levels (HepG2 cells [2]): 0.5-3%
POLR2A expression (TC-NER) (HepG2 cells [3]): upregulated at early time points
POLR2D expression (TC-NER) (HepG2 cells [3]): downregulated at late time points
base excision repair and global genomic repair pathways (HepG2 cells [3]): induced from 9/12 h until 60 h
period of upregulation of DDB2 (GG-NER) (HepG2 cells [3]): 9 to 60 h
period of upregulation of GC-NER (global genomic NER) reaction pathway (HepG2 cells [3]): 9 to 60 h
period of upregulation of TC-NER reaction pathway (HepG2 cells [3]): 9 to 42 h
